Measurements reported in patent publication US20070128217A1 (priority 2003, published 2007).

Assays:
[1] = tested on: antibodies in sera from SARS patients (sera 1a, 1b, 2, 6, 37, 62, London, SARS-yellow, SARS-green); type: binding, human; parameters: Binding of serum 6 to linear peptides of protein X1 of SARS-CoV Urbani / Binding of serum 37 to linear peptides of protein X1 of SARS-CoV Urbani / Binding of serum 6 to looped/cyclic peptide (PEPSCAN-ELISA) / Binding of serum 37 to looped/cyclic peptide (PEPSCAN-ELISA) / Binding of serum 37 to looped/cyclic peptides of protein X1 of SARS-CoV Urbani / Binding of serum 6 to linear peptides of protein X2 / Binding of serum 37 to linear peptides of protein X2 / Binding of serum 37 to looped/cyclic peptides of protein X2 of SARS-CoV Urbani / Binding of serum 6 to linear peptides of protein M of SARS-CoV Urbani / Binding of serum 37 to linear peptides of protein M of SARS-CoV Urbani / Binding of serum 6 to looped/cyclic peptides of protein M of SARS-CoV Urbani / Binding of serum 37 to looped/cyclic peptides of protein M of SARS-CoV Urbani / Binding of serum 6 to linear peptides of protein X3 of SARS-CoV Urbani / Binding of serum 37 to linear peptides of protein X3 of SARS-CoV Urbani / Binding of serum 37 to looped/cyclic peptides of protein X3 of SARS-CoV Urbani / Binding of serum 6 to linear peptides of protein X4 of SARS-CoV Urbani / Binding of serum 37 to linear peptides of protein X4 of SARS-CoV Urbani / Binding of serum 37 to looped/cyclic peptides of protein X4 of SARS-CoV Urbani / Binding of serum 6 to linear peptides of protein X5 of SARS-CoV Urbani / Binding of serum 37 to linear peptides of protein X5 of SARS-CoV Urbani / Binding of serum 37 to looped/cyclic peptides of protein X5 of SARS-CoV Urbani / Binding of serum 6 to linear peptides of protein N of SARS-CoV Urbani / Binding of serum 37 to linear peptides of protein N of SARS-CoV Urbani / Binding of serum 6 to linear peptide (PEPSCAN-ELISA) / Binding of serum 1a to looped/cyclic peptides of protein N of SARS-CoV Urbani / Binding of serum 1b to looped/cyclic peptides of protein N of SARS-CoV Urbani / Binding of serum 2 to looped/cyclic peptides of protein N of SARS-CoV Urbani / Binding of serum 6 to looped/cyclic peptides of protein N of SARS-CoV Urbani / Binding of serum 37 to looped/cyclic peptides of protein N of SARS-CoV Urbani / Binding of serum 62 to looped/cyclic peptides of protein N of SARS-CoV Urbani / Binding of serum London to looped/cyclic peptides of protein N of SARS-CoV Urbani / Binding of serum SARS-green to looped/cyclic peptides of protein N of SARS-CoV Urbani: unit not given here
[2] = tested on: control sera (pooled serum of ten healthy LUMC hospital workers; commercial negative donor pooled serum from the Dutch bloodbank); type: binding, human; parameters: Binding of Control serum LUMC to linear peptides / Binding of Control serum Blood-bank to linear peptides / Binding of Control serum LUMC to looped peptides / Binding of Control Serum Blood-Bank to Looped peptides / Binding of Control serum LUMC to linear peptides of the protein M of SARS-CoV Urbani / Binding of Control serum Blood-bank to linear peptides of the protein M of SARS-CoV Urbani / Binding of Control serum LUMC to looped peptides of the protein M of SARS-CoV Urbani / Binding of Control Serum Blood-Bank to Looped peptides of the protein M of SARS-CoV Urbani: unit not given here
[3] = tested on: rabbit serum obtained by immunizing a rabbit with the SARS-CoV strain Frankfurt 1; type: binding; parameters: Binding of a rabbit serum to linear peptides / Binding of a rabbit serum to looped peptides / Rabbit serum linear peptides / Rabbit serum looped peptides / Binding of a rabbit serum to linear peptides of protein N of SARS-CoV Urbani (Rabbit serum linear peptides) / Binding of a rabbit serum to looped/cyclic peptides of protein N of SARS-CoV Urbani (Rabbit serum looped peptides): unit not given here
[4] = tested on: recombinant human anti-SARS-CoV antibody 03-018; type: binding; parameters: Binding of antibody 03-018 to linear peptides of the N protein of SARS-CoV Urbani / Binding of antibody 03-018 to looped/cyclic peptides of the N protein of SARS-CoV Urbani: unit not given here

Sequence	Binding of serum 1a to linear peptides of protein N of SARS-CoV Urbani [1]	Binding of serum 1a to looped/cyclic peptides of protein N of SARS-CoV Urbani [1]	Binding of serum 1b to linear peptides of protein N of SARS-CoV Urbani [1]	Binding of serum 1b to looped/cyclic peptides of protein N of SARS-CoV Urbani [1]	Binding of serum 2 to linear peptides of protein N of SARS-CoV Urbani [1]	Binding of serum 2 to looped/cyclic peptides of protein N of SARS-CoV Urbani [1]	Binding of serum 6 to linear peptides of protein N of SARS-CoV Urbani [1]	Binding of serum 6 to looped/cyclic peptides of protein N of SARS-CoV Urbani [1]	Binding of serum 37 to linear peptides of protein N of SARS-CoV Urbani [1]	Binding of serum 37 to looped/cyclic peptides of protein N of SARS-CoV Urbani [1]	Binding of serum 62 to linear peptides of protein N of SARS-CoV Urbani [1]	Binding of serum 62 to looped/cyclic peptides of protein N of SARS-CoV Urbani [1]	Binding of serum London to linear peptides of protein N of SARS-CoV Urbani [1]	Binding of serum London to looped/cyclic peptides of protein N of SARS-CoV Urbani [1]	Binding of serum SARS-green to linear peptides of protein N of SARS-CoV Urbani [1]	Binding of serum SARS-green to looped/cyclic peptides of protein N of SARS-CoV Urbani [1]	Binding of serum SARS-yellow to linear peptides of protein N of SARS-CoV Urbani [1]	Binding of serum SARS-yellow to looped/cyclic peptides of protein N of SARS-CoV Urbani [1]	Binding of a rabbit serum to linear peptides of protein N of SARS-CoV Urbani (Rabbit serum linear peptides) [3]	Binding of a rabbit serum to looped/cyclic peptides of protein N of SARS-CoV Urbani (Rabbit serum looped peptides) [3]	also measured
TDEAQPLPQRQKKQP	0.2	0.2	0.2	0.0	0.3	0.2	0.2	0.1	0.7	0.1	0.7	0.0	1.2	0.1	0.7	0.0	1.0	0.1	0.1	0.0	Control Serum Blood-Bank Looped peptides [2]: 0.5; Control serum Blood-bank linear peptides [2]: 0.7; Control serum LUMC linear peptides [2]: 0.6; Control serum LUMC looped peptides [2]: 0.2; Binding of antibody 03-018 to linear peptides of the N protein of SARS-CoV Urbani [4]: 0.1; Binding of antibody 03-018 to looped/cyclic peptides of the N protein of SARS-CoV Urbani [4]: 0.1
LRFPRGQGVPINTNS	0.2	0.3	0.1	0.2	0.3	0.4	0.2	0.2	0.6	0.6	0.6	0.4	0.5	0.4	0.4	0.6	0.5	0.4	0.2	0.6	Binding of Control Serum Blood-Bank to Looped peptides [2]: 0.6; Binding of Control serum Blood-bank to linear peptides [2]: 0.7; Binding of Control serum LUMC to linear peptides [2]: 0.7; Binding of Control serum LUMC to looped peptides [2]: 0.6; Binding of antibody 03-018 to linear peptides of the N protein of SARS-CoV Urbani [4]: 0.1; Binding of antibody 03-018 to looped/cyclic peptides of the N protein of SARS-CoV Urbani [4]: 0.2
GPQSNQRSAPRITFG	0.2	0.3	0.1	0.2	0.2	0.3	0.1	0.3	0.6	0.6	0.7	0.4	0.4	0.4	0.4	0.3	0.5	0.8			Binding of Control Serum Blood-Bank to Looped peptides [2]: 0.7; Binding of Control serum Blood-bank to linear peptides [2]: 0.6; Binding of Control serum LUMC to linear peptides [2]: 0.5; Binding of Control serum LUMC to looped peptides [2]: 0.8; Recognition of the peptide by the rabbit serum [3]: also recognized; Recognition of the peptide by antibody 03-018 [4]: recognized
HIGTRNPNNNAATVL	0.3	0.6	0.2	0.5	0.4	0.9	0.2	0.6	0.9	1.2	0.8	1.3	0.5	0.7	0.5	0.9	0.7	0.8	0.1	0.7	Binding of Control Serum Blood-Bank to Looped peptides [2]: 1.2; Binding of Control serum Blood-bank to linear peptides [2]: 0.9; Binding of Control serum LUMC to linear peptides [2]: 0.9; Binding of Control serum LUMC to looped peptides [2]: 1.2; Binding of antibody 03-018 to linear peptides of the N protein of SARS-CoV Urbani [4]: 0.1; Binding of antibody 03-018 to looped/cyclic peptides of the N protein of SARS-CoV Urbani [4]: 0.3
